Data as given in US9914730B2, “Azaquinazoline inhibitors of Atypical protein Kinase C” (Ignyta, Inc., priority 2012, dated 2018).

Target: T1, full-length human PKCι (Homo sapiens, UniProt P41743)
T1 construct: Recombinant, full-length human PKCι expressed in Sf21 insect cells is also commercially available; purchased; host or cells: Sf21 insect cells
T1 sequence (P41743 1-596): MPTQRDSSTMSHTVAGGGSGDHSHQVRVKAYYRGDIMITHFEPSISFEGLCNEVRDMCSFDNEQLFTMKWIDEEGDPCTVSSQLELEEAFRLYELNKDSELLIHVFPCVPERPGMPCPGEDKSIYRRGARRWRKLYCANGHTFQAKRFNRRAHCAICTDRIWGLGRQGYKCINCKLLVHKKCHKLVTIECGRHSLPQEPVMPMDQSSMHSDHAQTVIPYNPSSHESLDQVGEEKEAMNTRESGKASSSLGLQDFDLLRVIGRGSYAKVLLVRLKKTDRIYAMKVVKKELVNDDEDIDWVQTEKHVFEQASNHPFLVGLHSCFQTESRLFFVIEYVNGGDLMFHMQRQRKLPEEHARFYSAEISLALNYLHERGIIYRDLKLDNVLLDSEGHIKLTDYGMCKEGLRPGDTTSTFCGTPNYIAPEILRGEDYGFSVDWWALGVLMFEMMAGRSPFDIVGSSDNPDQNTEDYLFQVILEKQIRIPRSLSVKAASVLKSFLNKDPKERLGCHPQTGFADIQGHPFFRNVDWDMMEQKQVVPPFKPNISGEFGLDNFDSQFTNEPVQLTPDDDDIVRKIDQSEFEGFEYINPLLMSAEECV
Experiment: PKCι IC50 IMAP assay, full-length PKCι at 150 μM ATP
Assay type: biochemical
Details: read-out: IC50 in IMAP assay against full length PKCi at 150 μM ATP
In short: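 Recombinant full-length human PKCι (Sf21-expressed, typically 15 pM) phosphorylated 100 nM 5FAM-labelled PKCε pseudosubstrate-derived peptide with 150 μM ATP (5× KM^APP) in 18 mM tris-HCl pH7.5, 9 mM MgCl2, EGTA, DTT, 4% DMSO. After 60 min at room temperature, IMAP binding reagent was added for 2 h and fluorescence polarisation read.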

| Structure (SMILES) | IC50 |
| --- | --- |
| COc1cncc2nc(N3CCOCC3)nc(N3CCN[C@@H](COc4ccccc4F)C3)c12 [Example 1008, 4-[(R)-3-(2-Fluoro-phenoxymethyl)-piperazin-1-yl]-5-methoxy-2-morpholin-4-yl-pyrido[3,4-d]pyrimidine] | 100 to 1000 nM |
| COc1ccccc1CC(=O)Nc1cc(-c2nc(N[C@@H]3CCNC3)c3ccncc3n2)ccn1 [Example 336, 2-(2-Methoxy-phenyl)-N-{4-[4-((R)-pyrrolidin-3-ylamino)-pyrido[3,4-d]pyrimidin-2-yl]-pyridin-2-yl}-acetamide] | 100 to 1000 nM |
| Clc1cccc(Cl)c1Nc1cc(-c2nc(N3CCNCC3)c3c(C4CC4)cncc3n2)ccn1 [Example 539, [4-(5-Cyclopropyl-4-piperazin-1-yl-pyrido[3,4-d]pyrimidin-2-yl)-pyridin-2-yl]-(2,6-dichloro-phenyl)-amine] | < 100 nM |
| Fc1cnc(Nc2cc(-c3nc(N4CCC(C5CCOCC5)C4)c4c(C5CC5)cncc4n3)ccn2)c(F)c1 (stereo not shown) [Example 2173, (4-{5-Cyclopropyl-4-[3-(tetrahydro-pyran-4-yl)-pyrrolidin-1-yl]-pyrido[3,4-d]pyrimidin-2-yl}-pyridin-2-yl)-(3,5-difluoro-pyridin-2-yl)-amine] | 1000 to 10000 nM |
| C[C@H](N)CNc1nc(-c2ccncc2)nc2cnccc12 [Example 5, N-[(2S)-2-aminopropyl]-2-(pyridin-4-yl)pyrido[3,4-d]-pyrimidin-4-amine] | 10000 to 40000 nM |
| Cc1cccc(Nc2cc(-c3nc(N4CCNCC4)c4c(C5CC5)cncc4n3)ccn2)c1Cl [Example 568, (2-Chloro-3-methyl-phenyl)-[4-(5-cyclopropyl-4-piperazin-1-yl-pyrido[3,4-d]pyrimidin-2-yl)-pyridin-2-yl]-amine] | < 100 nM |
| COc1cncc2nc(-c3ccnc(Nc4ccc(C#N)nc4)c3)nc(N3CCNCC3)c12 [Example 384] | 100 to 1000 nM |
| CNC(=O)C1CCN(c2nc(-c3ccnc(Nc4c(F)cccc4F)c3)nc3cncc(C4CC4)c23)C1 (stereo not shown) [Example 726, 1-{5-Cyclopropyl-2-[2-(2,6-difluoro-phenylamino)-pyridin-4-yl]-pyrido[3,4-d]pyrimidin-4-yl}-pyrrolidine-3-carboxylic acid methylamide] | 100 to 1000 nM |
| Fc1ccc(F)c(Nc2cc(-c3nc(N4CCNCC4)c4c(C5CC5)cncc4n3)ccn2)n1 [Example 548, [4-(5-Cyclopropyl-4-piperazin-1-yl-pyrido[3,4-d]pyrimidin-2-yl)-pyridin-2-yl]-(3,6-difluoro-pyridin-2-yl)-amine] | < 100 nM |
| Clc1cc2c(-c3nc(N4CCNCC4)c4c(C5CC5)cncc4n3)ccnc2[nH]1 [Example 2074, 2-(2-Chloro-1H-pyrrolo[2,3-b]pyridin-4-yl)-5-cyclopropyl-4-piperazin-1-yl-pyrido[3,4-d]pyrimidine] | < 100 nM |
| CC(C)NC(=O)C1CCN(c2nc(-c3ccncc3)nc3cnccc23)CC1 [Example 55, N-(propan-2-yl)-1-[2-(pyridin-4-yl)-pyrido[3,4-d]-pyrimidin-4-yl]-piperidine-4-carboxamide] | 1000 to 10000 nM |
| Cc1cc(F)c(Nc2cc(-c3nc(N4CCNCC4)c4c(C5CC5)cncc4n3)ccn2)c(F)c1 [Example 604, [4-(5-Cyclopropyl-4-piperazin-1-yl-pyrido[3,4-d]pyrimidin-2-yl)-pyridin-2-yl]-(2,6-difluoro-4-methyl-phenyl)-amine] | < 100 nM |
| Cc1cc2c(-c3nc(N4CCNCC4)c4c(C5CC5)cnc(Cl)c4n3)ccnc2[nH]1 [Example 2092, 8-Chloro-5-cyclopropyl-2-(2-methyl-1H-pyrrolo[2,3-b]pyridin-4-yl)-4-piperazin-1-yl-pyrido[3,4-d]pyrimidine] | < 100 nM |
| FC(F)(F)c1ccnc(Nc2cc(-c3nc(N4CCNCC4)c4c(C5CC5)cncc4n3)ccn2)c1 [Example 269, [4-(5-Cyclopropyl-4-piperazin-1-yl-pyrido[3,4-d]pyrimidin-2-yl)-pyridin-2-yl]-(4-trifluoromethyl-pyridin-2-yl)-amine] | < 100 nM |
| Clc1ccccc1Nc1cc(-c2nc(N3CCNCC3)c3c(C4CC4)cncc3n2)ccn1 [Example 477, (2-Chloro-phenyl)-[4-(5-cyclopropyl-4-piperazin-1-yl-pyrido[3,4-d]pyrimidin-2-yl)-pyridin-2-yl]-amine] | < 100 nM |
| [2H]c1c([2H])c([2H])c(Nc2cc(-c3nc(N4CCNCC4)c4c(C5CC5)cncc4n3)ccn2)c([2H])c1[2H] [Example 559, [4-(5-Cyclopropyl-4-piperazin-1-yl-pyrido[3,4-d]pyrimidin-2-yl)-pyridin-2-yl]-pentdeuterio-phenyl-amine] | < 100 nM |
| Fc1cc(F)c(Nc2cc(-c3nc(N4CCNCC4)c4c(C5CC5)cncc4n3)ccn2)cn1 [Example 748, [4-(5-Cyclopropyl-4-piperazin-1-yl-pyrido[3,4-d]pyrimidin-2-yl)-pyridin-2-yl]-(4,6-difluoro-pyridin-3-yl)-amine] | < 100 nM |
| N[C@H](CNc1nc(-c2ccncc2)nc2c(Cl)nccc12)Cc1ccccc1 [Example 11, N-[(2S)-2-amino-3-phenylpropyl]-8-chloro-2-(pyridin-4-yl)pyrido[3,4-d]-pyrimidin-4-amine] | < 100 nM |
| COc1cncc2nc(-c3ccnc(Nc4cncnc4)c3)nc(N3CCNCC3)c12 [Example 386, [4-(5-Methoxy-4-piperazin-1-yl-pyrido[3,4-d]pyrimidin-2-yl)-pyridin-2-yl]-pyrimidin-5-yl-amine] | 100 to 1000 nM |
| CC(C)[C@H]1CN(c2nc(-c3ccnc(Nc4ccccc4)c3)nc3cncc(C4CC4)c23)CCN1 [Example 275, {4-[5-Cyclopropyl-4-((S)-3-isopropyl-piperazin-1-yl)-pyrido[3,4-d]pyrimidin-2-yl]-pyridin-2-yl}-phenyl-amine] | < 100 nM |
| CC1(C)CC(Nc2nc(-c3ccnc(Nc4c(F)cccc4F)c3)nc3cncc(C4CC4)c23)CCN1 (stereo not shown) [Example 2038, {5-Cyclopropyl-2-[2-(2,6-difluoro-phenylamino)-pyridin-4-yl]-pyrido[3,4-d]pyrimidin-4-yl}-(2,2-dimethyl-piperidin-4-yl)-amine] | < 100 nM |
| c1csc(-c2cc3c(-c4nc(N5CCNCC5)c5c(C6CC6)cncc5n4)ccnc3[nH]2)c1 [Example 1222, 5-Cyclopropyl-4-piperazin-1-yl-2-(2-thiophen-2-yl-1H-pyrrolo[2,3-b]pyridin-4-yl)-pyrido[3,4-d]pyrimidine] | < 100 nM |
| COc1cncc2nc(-c3ccnc(Nc4cccc(F)n4)c3)nc(N3CCNCC3)c12 [Example 447, (6-Fluoro-pyridin-2-yl)-[4-(5-methoxy-4-piperazin-1-yl-pyrido[3,4-d]pyrimidin-2-yl)-pyridin-2-yl]-amine] | < 100 nM |
| OC1CCN(c2nc(-c3ccnc4[nH]c(C(F)(F)F)cc34)nc3cncc(C4CC4)c23)CC1 [Example 1239, 1-[5-Cyclopropyl-2-(2-trifluoromethyl-1H-pyrrolo[2,3-b]pyridin-4-yl)-pyrido[3,4-d]pyrimidin-4-yl]-piperidin-4-ol] | < 100 nM |
| O[C@@H]1CCN(c2nc(-c3ccnc4[nH]c(C(F)(F)F)cc34)nc3cncc(C4CC4)c23)C[C@H]1O (racemic) [Example 1235, (+/−)-(trans)-1-[5-Cyclopropyl-2-(2-trifluoromethyl-1H-pyrrolo[2,3-b]pyridin-4-yl)-pyrido[3,4-d]pyrimidin-4-yl]-piperidine-3,4-diol] | 100 to 1000 nM |
